# Source: patent publication US20240123039A1, “DETOXIFICATION PREPARATIONS WITH REINFORCED BOOSTERS TO TREAT ALCOHOL INTOXICATION” (priority 2022, published 2024)
# What was measured:
# [1] = cited from earlier work; for safety of human consumption: by mouth up to 1000 mg per dose per day; for side effects of oral intake: orally, up to or more than 1000 mg per day over many years
# [2] = target: T1, alcohol dehydrogenase (ADH) (Saccharomyces cerevisiae, UniProt P00330); assay: Effect of NADP concentration on alcohol dehydrogenase activity, OD340 read every minute; format: biochemical; settings: for OD of samples after subtracting OD at time zero vs. Time / OD of samples vs. Time: ADH 84 U/mL, 2.5% ethanol; for OD of samples vs. Time: OD340
# T1 construct: purchased Sigma
# T1 sequence (P00330 1-348): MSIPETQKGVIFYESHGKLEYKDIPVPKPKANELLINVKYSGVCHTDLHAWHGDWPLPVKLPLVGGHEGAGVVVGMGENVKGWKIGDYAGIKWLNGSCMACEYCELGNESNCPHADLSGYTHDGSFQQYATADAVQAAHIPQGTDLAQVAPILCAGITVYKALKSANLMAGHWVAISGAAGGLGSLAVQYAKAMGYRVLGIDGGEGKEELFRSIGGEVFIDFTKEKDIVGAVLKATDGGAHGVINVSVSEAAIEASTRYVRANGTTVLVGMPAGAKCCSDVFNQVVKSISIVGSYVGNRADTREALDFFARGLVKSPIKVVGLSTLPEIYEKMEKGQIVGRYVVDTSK
# Method: 100% ethanol (EtOH) was purchased from VWR. Buffer used was Triz Base at 0.2 M, pH 8.2.
# The concentration of ethanol is 2.5% (v/v). And 0.28 mg/mL ADH, equivalent to 84 U/mL.
# Multiple samples were prepared as per Table 1. The assay was performed as follows: • 1. […] Place a quartz cuvette into the spectrophotometer. • 3. At time minus 10 seconds, add 0.1 mL enzyme (2 mg/mL ADH or buffer blank) to the cuvette. • 4. Mix by pipetting. Read OD340 at time zero. • 5. Read OD340 every minute for 5 minutes. 6. Repeat for remaining samples.
compound,measurement,setting,value
"NC(=O)c1ccc[n+]([C@@H]2O[C@H](COP(=O)([O-])O)[C@@H](O)[C@H]2O)c1 [NMN, Nicotinamide Mononucleotide]",safety of human consumption,[1],no ill effects
same,side effects of oral intake,[1],without any detectable undesirable side effects
"NC(=O)c1ccc[n+]([C@@H]2O[C@H](CO)[C@@H](O)[C@H]2O)c1 [NR, Nicotinamide Riboside]",safety of human consumption,[1],no ill effects
same,side effects of oral intake,[1],without any detectable undesirable side effects
Nicotinamide Adenine Dinucleotide Phosphate [NADP],OD of samples after subtracting OD at time zero vs. Time,"[2]; 0 min, NADP 8.5 mM final",0
same,OD of samples vs. Time,"[2]; 0 min, NADP 8.5 mM final",0.003
same,OD of samples after subtracting OD at time zero vs. Time,"[2]; 0 min, NADP 28 mM final",0
same,OD of samples vs. Time,"[2]; 0 min, NADP 28 mM final, listed as NADP 3x",0.749
same,OD of samples vs. Time,"[2]; 0 min, NADP 28 mM final, listed as NADP 3×",around 0.8
same,velocity of ethanol removal by ADH in the higher NADP mixture compared to the lower NADP mixture,"[2]; 28 mM vs 8.4 mM NADP, same conc of ADH",about 2 ×
same,OD of samples after subtracting OD at time zero vs. Time,"[2]; 1 min, NADP 8.5 mM final",0.059
same,OD of samples vs. Time,"[2]; 1 min, NADP 8.5 mM final",0.062
same,OD of samples vs. Time,"[2]; 1 min, NADP 28 mM final",0.860
same,OD of samples after subtracting OD at time zero vs. Time,"[2]; 2 min, NADP 8.5 mM final",0.087
same,OD of samples vs. Time,"[2]; 2 min, NADP 8.5 mM final",0.090
same,OD of samples after subtracting OD at time zero vs. Time,"[2]; 2 min, NADP 28 mM final",0.169
same,OD of samples vs. Time,"[2]; 2 min, NADP 28 mM final",0.918
same,OD of samples after subtracting OD at time zero vs. Time,"[2]; 3 min, NADP 8.5 mM final",0.098
same,OD of samples vs. Time,"[2]; 3 min, NADP 28 mM final",0.948
same,OD of samples after subtracting OD at time zero vs. Time,"[2]; 4 min, NADP 8.5 mM final",0.102
same,OD of samples vs. Time,"[2]; 4 min, NADP 28 mM final",0.963
same,OD of samples after subtracting OD at time zero vs. Time,"[2]; 5 min, NADP 28 mM final",0.223
same,OD of samples vs. Time,"[2]; 5 min, NADP 28 mM final",0.972
same,OD at higher NADP concentration compared with the lower NADP concentration,"[2]; starting at 1 minute, higher vs lower NADP concentration",higher ODs at every time point
